Reference: PubChem BioAssay (NCI)
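How tested: cells in 96-well plates exposed to compound for 48 hours at five concentrations. GI50: concentration for 50% inhibition of growth. At the TGI there is no net growth.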

How the values were obtained:
Experiment in all cases: NCI tumour cell line growth inhibition, 48 h
HS 578T breast = system: HS 578T breast
BT-549 breast = system: BT-549 breast
NCI-H522 lung = system: NCI-H522 lung
PC-3 prostate = system: PC-3 prostate
M14 melanoma = system: M14 melanoma
HOP-18 NSCLC = system: HOP-18 NSCLC
LXFL 529 NSCLC = system: LXFL 529 NSCLC
DMS 114 small cell lung = system: DMS 114 small cell lung
KM20L2 colon = system: KM20L2 colon
M19-MEL melanoma = system: M19-MEL melanoma
XF 498 CNS = system: XF 498 CNS
DLD-1 colon = system: DLD-1 colon
786-0 renal = system: 786-0 renal
P388 leukemia = system: P388 leukemia
SN12K1 renal = system: SN12K1 renal
P388/ADR leukemia = system: P388/ADR leukemia

Row | Structure (SMILES) | TGI (HS 578T breast) | TGI (BT-549 breast) | TGI (NCI-H522 lung) | TGI (PC-3 prostate) | TGI (M14 melanoma) | TGI (HOP-18 NSCLC) | TGI (LXFL 529 NSCLC) | TGI (DMS 114 small cell lung) | TGI (KM20L2 colon) | TGI (M19-MEL melanoma) | TGI (XF 498 CNS) | TGI (DLD-1 colon) | TGI (786-0 renal) | other results
1 | C[C@]12CCc3sc(Nc4ccc(O)cc4)nc3C1=CC[C@@H]1[C@@H]2CC[C@]2(C)C(=O)CC[C@@H]12 | > 100 µM | > 100 µM | 2.96 µM | 8.15 µM |  |  |  |  |  |  |  |  |  | GI50 (HS 578T breast): 3.38 µM; GI50 (BT-549 breast): 3.13 µM; GI50 (NCI-H522 lung): 1.42 µM; GI50 (PC-3 prostate): 2.49 µM
2 | COc1ccc(-c2c3c(nc4nc(SC)nc(SC)c24)CCCC3)cc1OC | 86.3 µM | > 100 µM | > 100 µM | > 100 µM | > 100 µM |  |  |  |  |  |  |  |  | 
3 | CCc1nnc(-c2nsc3ccccc23)s1 |  |  |  |  | > 100 µM | > 100 µM | > 100 µM | > 100 µM | > 100 µM |  |  |  |  | 
4 | CCSc1nc(=[N+]2CCCC2)ss1 | > 100 µM | 95.9 µM | > 100 µM | > 100 µM | > 100 µM | > 100 µM | > 100 µM | 55.5 µM | > 100 µM | 27.3 µM | > 77.9 µM | > 100 µM | > 87 µM | 
5 | NC(=S)N/N=C1\c2ccccc2CCC1CCC1(O)CCc2ccccc2C1=O (stereo unspecified) | 63 µM | 31.6 µM |  | 88.7 µM | 38 µM |  |  |  |  |  |  |  |  | 
6 | CC(c1ccccc1)/[N+]([O-])=C/c1ccccc1 (stereo unspecified) |  |  | > 100 µM |  |  | > 100 µM | > 100 µM | > 100 µM | > 100 µM | > 100 µM | > 100 µM | > 100 µM |  | 
7 | O=C(O)CC1OCC=C2CN3CCC45C6=CC(=O)C(=O)C([N+](=O)[O-])=C6NC4C1C2CC35 (stereo unspecified) | > 100 µM | > 100 µM | > 100 µM | > 100 µM | > 100 µM |  |  |  |  |  |  |  | > 100 µM | 
8 | C/C(=N\NC(=S)Nc1ccc(C)cc1)c1nc2ncccc2[nH]1 | 58.9 µM | 11.8 µM |  | 32.5 µM |  |  |  |  |  |  |  |  | 18.7 µM | 
9 | CN1CCN(c2cc(-c3cc4ccccc4o3)oc(=O)c2C#N)CC1 |  |  |  |  | > 100 µM |  | > 100 µM | > 100 µM | > 100 µM |  | > 100 µM | > 100 µM |  | 
10 | O=C(O)CC1(CC(=O)O)Nc2ccccc2SC1=O | > 100 µM | > 100 µM | > 100 µM | > 100 µM | > 100 µM |  |  |  |  |  |  |  | > 100 µM | 
11 | Cc1ccc(Nc2nc(NS(=O)(=O)c3cc(C(=O)Nc4ccc(Cl)cc4)c(Cl)cc3S)n[nH]2)cc1 | > 100 µM | > 100 µM |  | > 100 µM | > 100 µM |  |  |  |  |  |  |  |  | 
12 | CC(CCC(=O)O)C1CCC2C3C(O)CC4CC(O)CCC4(C)C3CC(O)C12C (stereo unspecified) | > 100 µM | > 100 µM | > 100 µM | > 100 µM | > 100 µM |  |  |  |  |  |  |  | > 100 µM | 
13 | CC1OC1C(=O)C1(O)C(C)C(O)C23OC2(C(O)c2c(O)cccc2C3=O)C1O (stereo unspecified) |  |  | 0.338 µM |  |  | 0.489 µM |  | 0.191 µM | 1.14 µM | 0.526 µM | 0.961 µM | 1.7 µM |  | TGI (P388 leukemia): 0.345 µM; TGI (SN12K1 renal): 0.889 µM; TGI (P388/ADR leukemia): 0.425 µM
14 | COC1=CC(=O)c2c(O)c3c(c(O)c2C1=O)C=C(C)OC3O (stereo unspecified) | 7.9 µM | 3.5 µM | 3.95 µM | 16.3 µM | 0.845 µM |  | 2.7 µM | 2.96 µM | 10.4 µM | 0.502 µM | 4.72 µM | 3.87 µM | 10.9 µM | 
15 | O=C(NN1C(=O)CSC1c1ccc(C(F)(F)F)cc1)c1ccncc1 (stereo unspecified) |  |  | > 100 µM |  |  | > 100 µM |  | > 100 µM | > 100 µM | > 100 µM | > 100 µM | > 100 µM |  | TGI (P388 leukemia): > 100 µM; TGI (SN12K1 renal): > 100 µM; TGI (P388/ADR leukemia): > 100 µM
16 | CCOP(=O)(CN=C(c1ccccc1)c1ccccc1)OCC | > 100 µM |  | > 100 µM | > 100 µM | > 100 µM |  |  |  |  |  |  |  |  | 
